A short description of this data set: Human HepG2 cell viability assay in 384 well format. In kind it is toxicity, cell-based. The arrangement: dose 125 nL, time 70.5 hour; concentration not given beside the values. Particulars: HepG2 cells, read-out: Inhibition.

Molecules are shown by their SMILES.

For the molecule `O=C(C1CCC1)N1CCCC(c2cccc(-n3ccnc3)n2)C1` (stereo unspecified), the cytotoxicity at 70.5 h was -6.13%. Under `COCC(=O)N1CCCC1c1csc(Nc2cnccn2)n1` (stereo unspecified) stands -10.2%.

In the case of `Cc1cncc(C2CCN(Cc3cccn3C)CC2)n1`, the cytotoxicity at 70.5 h turned out to be 11.8%. Consider `COc1ncc(CN2CCCC(c3[nH]ncc3S(C)(=O)=O)C2)cn1` (stereo unspecified), for which the cytotoxicity at 70.5 h was -7.31%. Turning to `CNc1cncc(C2CCCN2Cc2cccc(C)n2)n1` (stereo unspecified), the cytotoxicity at 70.5 h is -6.12%.

For `O=C(Cc1ccsc1)N1CCC(O)(CN2CCc3ccccc3C2)C1` (stereo unspecified), the cytotoxicity at 70.5 h is -5.49%. As for `Cc1ccc(C(=O)N2CCCCC2c2[nH]ncc2S(C)(=O)=O)s1` (stereo unspecified), the figure is 12.5%; as for `Cn1cccc1C(=O)N1CCCCC1c1[nH]ncc1S(C)(=O)=O` (stereo unspecified), -5.18%; as for `O=C(N[C@@H]1CN(Cc2cccc3[nH]ccc23)C[C@H]1O)c1cscn1`, -4.99%. As for `COc1ccc(CN2CCOC(CCc3ccnc(N)c3)C2)cc1` (stereo unspecified), the cytotoxicity at 70.5 h was -0.852%. Under `CCN(CC)S(=O)(=O)NCC1COc2ccccc2O1` (stereo unspecified) stands 24.9%; under `CCc1nnc(CN2CCc3ccc(S(N)(=O)=O)cc32)o1`, -0.999%; under `CN(C(=O)c1ccccc1N(C)S(C)(=O)=O)c1ccc(C(C)(C)C)cc1`, 5.15%. Regarding `Cc1ncsc1C(=O)N1CCCC1c1c(C)nn(C)c1C` (stereo unspecified), the cytotoxicity at 70.5 h is -1.63%.

As to `O=S(=O)(NCc1ccnc(-n2ccnc2)c1)c1cncc(Cl)c1`, the cytotoxicity at 70.5 h was -0.226%.

As to `CCN(Cc1cnc(C)cn1)C1CCN(c2ccccc2)C1=O` (stereo unspecified), the cytotoxicity at 70.5 h was found to be 2.9%. As for `CCOCCC(=O)N(CCC#N)c1ccc(C)c(C)c1`, the figure is -1.94%; as for `CC(C(=O)NCc1ccc2c(c1)OCCO2)n1cncn1` (stereo unspecified), 31.8%; as for `O=C(CCn1cccn1)NCCOc1ccc2c(c1)OCO2`, -6.03%. With `O=C(CCOc1ccc(Cl)cc1)NCCCn1cccn1`, the cytotoxicity at 70.5 h amounted to 23.1%.

Consider `N#Cc1cccnc1N1CCC(Nc2ccccc2)C1` (stereo unspecified), for which the cytotoxicity at 70.5 h is -8.64%. As for `Cc1ccc(C(=O)NC2CCN(S(C)(=O)=O)CC2)c(=O)[nH]1`, the figure is -14.3%; as for `Cc1nn(CC(=O)NCC2(C(N)=O)CCOCC2)c(C)c1Cl`, -8.87%; as for `Cc1nn(C)c(Cl)c1C(=O)NCC1(C(N)=O)CCOCC1`, -11.7%. Turning to `Cc1ncc2c(n1)CN(Cc1nc(-c3ccsc3)oc1C)CC2`, the cytotoxicity at 70.5 h was -15.2%.

For `CC(C)NC(=O)CN(C)C(=O)c1csc(Cc2ccccc2F)n1`, the cytotoxicity at 70.5 h was -6.85%.

On to `Cc1nc(COC(=O)c2cccc3c2OCCO3)no1`, for which the cytotoxicity at 70.5 h stood at 23.5%. Consider `N#CC1COCCN1C(=O)c1ccc2cc[nH]c2c1` (stereo unspecified), for which the cytotoxicity at 70.5 h was -9.25%.

In the case of `CC(C)NC(=O)CNC(=O)c1csc(Cc2ccccc2F)n1`, the cytotoxicity at 70.5 h is -4.54%. As for `Cn1cc(CN2CCS(=O)(=O)C(C)(C)C2)cn1`, the figure is -9.13%; as for `Cc1nc(COC(=O)c2cccnc2C)no1`, -5.39%; as for `CCCC(C#N)NC(=O)c1sccc1CC` (stereo unspecified), -12.4%. Take `CCc1ncc2c(n1)CN(Cc1nc(-c3ccco3)oc1C)CC2`: the cytotoxicity at 70.5 h is -7.47%.

For the molecule `COc1cc(NC2CCCN(c3ncccc3C#N)C2)cc(OC)c1` (stereo unspecified), the cytotoxicity at 70.5 h is 23%. In the case of `CCN(C)Cc1cccc(CNC(=O)CSCc2ccccn2)c1`, the cytotoxicity at 70.5 h is -15.2%. Regarding `CC(NCc1cccc(NC(=O)C2CCCCC2)c1)c1cnn(C)c1` (stereo unspecified), the cytotoxicity at 70.5 h is -9.44%.

In the case of `CC(C)C(=O)Nc1cccc(CNC(=O)CSCc2ccccn2)c1`, the cytotoxicity at 70.5 h is -11.7%. As for `CC(C(=O)NCC(C)(C)c1ccc2c(c1)OCCO2)n1cncn1` (stereo unspecified), the figure is 0.318%. Regarding `CC(CNS(N)(=O)=O)Oc1cccc(Cl)c1` (stereo unspecified), the cytotoxicity at 70.5 h is -0.0153%.

On to `O=C(NC1CCS(=O)(=O)C1)c1ccccc1SCc1cscn1` (stereo unspecified), for which the cytotoxicity at 70.5 h is -9.17%. Turning to `O=C(NC1CCS(=O)(=O)C1)c1ccc(SCc2cscn2)cc1` (stereo unspecified), the cytotoxicity at 70.5 h is -6.01%.
